Test results published in US7252944B2, “Methods and compositions for modulating cell proliferation” (IRM LLC, priority 2003, dated 2007).

What was measured:
[1] = system: hog1-as1 mutant strain (hog1-27); assay: Genome-wide expression analysis, hog1-as1 mutant strain under salt; format: cell-based, Saccharomyces cerevisiae; settings: MUTS+1-NM-PP1 versus MUTS+DMSO; 1-NM-PP1 2 μM, 0.9 M NaCl
Method: (§1) Genome-wide expression analysis: Total RNA preparation from hog1-27 strain was performed as described previously (Holstege et al., Cell 95, 717-28, 1998). To monitor the changes in expression caused by specific inhibition of Hog1 kinase, cultures of either wt or hog1-27 were incubated with 1-NM-PP1 (2 μM) for 30 minutes before harvesting (for control, 0.002% DMSO was added). To monitor the effect of osmotic stress, sodium chloride was added into either inhibitor-treated or DMSO-treated cultures to a final concentration of 0.9 M.
(§2) The preparation of probe and the procedure for microassay experiments was performed as described in the literature. The output files from the scanner were uploaded into the GNF chip informatics server and expression profiles were analyzed using a built-in analysis program, ANOVA. Search for the common transcriptional regulatory elements was done using the promoter database of Saccharomyces cerevisiae at the Cold Spring Harbor Laboratory.
For DNA micro-array experiments, total RNAs were isolated from both the wt strain and the hog1-as1 mutant strain (hog1-27) treated with DMSO (WT+DMSO, MUT+DMSO), salt and DMSO (WTS+DMSO, MUTS+DMSO), salt and inhibitor (WTS+1-NM-PP1, MUTS+1-NM-PP1). For each experiment, RNA samples were prepared in duplicates, followed by the preparation of the corresponding biotinylated cRNA probes and hybridized to Yeast Genome S98 arrays (Affymetrix). Two expression profiles were first examined between duplicate samples to ensure reproducibility and the whole procedure was repeated three times. […] To analyze the number of genes affected by salt addition, expression profiles of MUTS+DMSO versus MUT+DMSO were compared by ANOVA (Brazma and Vilo, 2000). The expressions of 874 genes in the mutant strain were changed more than 2.5 fold by the addition of salt. Thus, the analysis covered almost the full complement of genes known to be affected by osmotic stress.
The effect of inhibition in the hog1-as1 mutant strain was examined by comparing the expression profiles of MUTS+1-NM-PP1 versus MUTS+DMSO. […]

wt strain = assay: Genome-wide expression analysis, wt strain under salt; format: cell-based, Saccharomyces cerevisiae; settings: 1-NM-PP1 2 μM, 0.9 M NaCl
Method: as §1, §2
For DNA micro-array experiments, total RNAs were isolated from both the wt strain and the hog1-as1 mutant strain (hog1-27) treated with DMSO (WT+DMSO, MUT+DMSO), salt and DMSO (WTS+DMSO, MUTS+DMSO), salt and inhibitor (WTS+1-NM-PP1, MUTS+1-NM-PP1). […]

SHMT = settings: background statement; cited from earlier work
SHMT1 [2] = assay: SHMT1 activity immunoprecipitated from sorbitol-stimulated SHMT1-HEK293 cells; format: cell-based, human; settings: serum-starved SHMT1-HEK293 cells, 0.3 M sorbitol, 15 or 30 min; FIG. 3
Method: Transfection and retroviral infection: SHMT1 (human homolog of yeast Shm2) with a C-terminal myc tag was cloned into pBabe puro plasmid and was transiently transfected into Bosc 23 cells using Effectene (Qiagen) as manufacturer's protocol. The harvested retroviruses was added to 5×10^5 HEK-293 cells for infection. After 48 hours the infected cells were selected in the presence of 2.5 µg/mL of puromycin. SHMT1-HEK293 cells were cultured in DMEM with 10% Bovine Calf Serum (BCS) and were serum-starved for 24 hr in DMEM with 0.5% BCS.
Transient transfection and SHMT1 assay: MKK6b was cloned into pcDNA6Hismyc B vector (Invitrogen) and MKK6b-EE was further generated using Quick change protocol (Stratagene). Transient transfection of MKK6b-EE into SHMT1-HEK 293 cells was carried using Lipofectamine 2000 (Invitrogen) according to the manufacturer's protocol. […] SHMT1 or phosphorylated form of p38α was detected by immunobloting with either c-myc antibody (Santa Cruz) or phospho-p38 antibody (Cell Signal) using West pico supersignal kit (Pierce).
Finally, to investigate whether SHMT1 was also an in vivo target of p38 MAP kinase, myc-tagged SHMT1 expressing HEK 293 stable cells were generated. […] SHMT1 was immunoprecipitated at different time points after stimulation and its enzymatic activity was measured as described above. […]

Shm2 = molecular target: T1, Shm2 (Saccharomyces cerevisiae, UniProt P37291); assay: Enzymatic assay for serine hydroxymethyltransferase 2 (Shm2) after pre-incubation with kinase; format: biochemical; settings: in vitro; pre-incubation with p38α and 1 mM ATP, 30 min RT; FIG. 2D
T1 construct: made in house; host or cells: Saccharomyces cerevisiae
T1 sequence (P37291 1-469): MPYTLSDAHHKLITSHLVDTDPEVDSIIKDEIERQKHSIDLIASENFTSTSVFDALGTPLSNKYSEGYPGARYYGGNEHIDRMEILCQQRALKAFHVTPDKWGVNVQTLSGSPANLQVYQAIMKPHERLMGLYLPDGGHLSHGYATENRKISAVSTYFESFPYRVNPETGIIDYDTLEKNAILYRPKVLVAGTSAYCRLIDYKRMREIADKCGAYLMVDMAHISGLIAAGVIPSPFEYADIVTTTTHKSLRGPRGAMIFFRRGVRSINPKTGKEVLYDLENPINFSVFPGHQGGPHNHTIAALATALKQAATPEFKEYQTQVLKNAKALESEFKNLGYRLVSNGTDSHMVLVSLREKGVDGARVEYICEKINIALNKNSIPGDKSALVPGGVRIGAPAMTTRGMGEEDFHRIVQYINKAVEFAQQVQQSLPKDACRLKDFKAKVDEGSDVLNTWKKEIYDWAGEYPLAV
Method: (§3) Enzymatic assay for serine hydroxymethyltransferase 2 (Shm2): GST-Shm2 was purified from a yeast strain as described above and its enzymatic activity was measured as described earlier (Krishna Rao et al., Biochem J 343 Pt 1, 257-63, 1999) with minor modifications. To measure the effect of either Hog1-as1 or p38 kinases, Shm2 enzyme was pre-incubated with each kinase in presence of either 1 mM PE-ATP (for Hog1-as1) or 1 mM ATP (for p38) for 30 min at RT before adding to the reaction mixture.
To determine Shm2 activity, we measured the transfer of C^14-labeled one-carbon unit as described in the Krishna Rao et al., Biochem J 343 Pt 1, 257-63, 1999. In order to estimate the effect of phosphorylation, Shm2 was pre-incubated with or without Hog 1 kinase, prior to the C^14 transfer reaction.

SHMT1 [3] = molecular target: T2, SHMT1 (Homo sapiens, UniProt P34896); assay: SHMT1 enzymatic assay after phosphorylation by p38; format: biochemical; settings: stated as in vitro; FIG. 4
T2 construct: expressed in transfected cells; host or cells: HEK-293 cells, retroviral infection with pBabe puro and puromycin selection (SHMT1-HEK293)
T2 sequence (P34896 1-483): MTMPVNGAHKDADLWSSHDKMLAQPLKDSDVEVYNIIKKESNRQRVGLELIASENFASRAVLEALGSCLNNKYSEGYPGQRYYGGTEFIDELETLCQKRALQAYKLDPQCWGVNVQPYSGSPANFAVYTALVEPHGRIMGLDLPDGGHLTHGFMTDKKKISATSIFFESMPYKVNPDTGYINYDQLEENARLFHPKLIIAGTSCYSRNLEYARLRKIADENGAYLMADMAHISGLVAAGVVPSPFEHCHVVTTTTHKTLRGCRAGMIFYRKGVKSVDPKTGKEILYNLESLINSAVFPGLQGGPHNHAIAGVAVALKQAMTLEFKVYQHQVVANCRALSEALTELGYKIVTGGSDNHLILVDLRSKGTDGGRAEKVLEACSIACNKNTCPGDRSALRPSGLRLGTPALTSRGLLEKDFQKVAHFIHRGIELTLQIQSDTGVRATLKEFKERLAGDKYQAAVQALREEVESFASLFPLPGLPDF
Method: as §3
Transient transfection and SHMT1 assay: MKK6b was cloned into pcDNA6Hismyc B vector (Invitrogen) and MKK6b-EE was further generated using Quick change protocol (Stratagene). Transient transfection of MKK6b-EE into SHMT1-HEK 293 cells was carried using Lipofectamine 2000 (Invitrogen) according to the manufacturer's protocol. Immunoprecipitation procedure for SHMT1 from transfected cells was described previously (Shah and Shokat, Chem Biol 9, 35-47, 2002). SHMT1 enzymatic assay was carried out exactly as Shm2 assay as described above. SHMT1 or phosphorylated form of p38α was detected by immunobloting with either c-myc antibody (Santa Cruz) or phospho-p38 antibody (Cell Signal) using West pico supersignal kit (Pierce).

CC(C)(C)n1nc(Cc2cccc3ccccc23)c2c(N)ncnc21 [1-NM-PP1]
number of genes affected more than 2-fold by addition of inhibitor [1]: 96 genes | number of genes downregulated by addition of inhibitor [1]: 81 genes | number of genes upregulated by addition of inhibitor [1]: 15 genes | number of genes affected by addition of inhibitor (wt strain): 11 genes

CN(Cc1cnc2nc(N)nc(N)c2n1)c1ccc(C(=O)N[C@@H](CCC(=O)O)C(=O)O)cc1 [methotrexate]
inhibition of SHMT activity (SHMT): failed to inhibit SHMT activity significantly

OC[C@@H](O)[C@@H](O)[C@H](O)[C@@H](O)CO [sorbitol]
SHMT1 enzymatic activity after sorbitol treatment (SHMT1 [2]): decreased activity of SHMT1

p38 MAP kinase: Active p38α MAP kinase purchased from Upstate Inc.; human homolog of Hog1
modulation of Shm2 enzymatic activity upon phosphorylation (Shm2): ~50% | modulation of SHMT1 enzymatic activity upon phosphorylation (SHMT1 [3]): 30%
